≈ marks a conversion by molar mass, not a printed value.
Test system: Staphylococcus aureus
Assay: Minimum inhibitory concentration of amoxicillin
Format: cell-based
Details: susceptible bacteria

**Q.** For `CC1(C)S[C@@H]2[C@H](NC(=O)[C@H](N)c3ccc(O)cc3)C(=O)N2[C@H]1C(=O)O` [Amoxicillin], which MIC is on record?
**A.** 0.05 to 8 µg/mL (≈ 0.137 to 21.9 µM)

— patent publication US10195158B2, “Bioactive oil based polyesteramide nanofibers for wound healing applications” (Council of Scientific and Industrial Research, priority 2014, dated 2019)
